Source: ChEMBL document CHEMBL4011590, “Structure-activity relationship studies on 3,5-dinitrophenyl tetrazoles as antitubercular agents” (Eur J Med Chem, 2017)

Key:
[1] = test system: Mycobacterium tuberculosis; assay: Antimycobacterial activity against Mycobacterium tuberculosis H37Rv CNCTC My 331/88 after 14 days by micromethod; format: functional; conditions: H37Rv CNCTC My 331/88, 336 h
[2] = test system: Staphylococcus aureus; assay: Antibacterial activity against Staphylococcus aureus ATCC 6538 after 24 hrs by broth microdilution method; format: functional; conditions: ATCC 6538, 24 h
[3] = test system: Trichosporon asahii; assay: Antifungal activity against Trichosporon asahii 1188 after 24 hrs by broth microdilution method; format: functional; conditions: Trichosporon asahii, 1188, 24 h
[4] = test system: Enterococcus sp.; assay: Antibacterial activity against Enterococcus sp. HK14365/08 after 48 hrs by broth microdilution method; format: functional; conditions: HK14365/08, 48 h
[5] = test system: Mycobacterium kansasii; assay: Antimycobacterial activity against Mycobacterium kansasii CNCTC My 235/80 after 7 days by micromethod; format: functional; conditions: CNCTC My 235/80, 168 h
[6] = test system: Klebsiella pneumoniae; assay: Antibacterial activity against Klebsiella pneumoniae HK11750/08 after 24 hrs by broth microdilution method; format: functional; conditions: HK11750/08, 24 h
[7] = test system: Lichtheimia corymbifera; assay: Antifungal activity against Absidia corymbifera 272 after 24 hrs by broth microdilution method; format: functional; conditions: Lichtheimia corymbifera, 272, 24 h
[8] = test system: Staphylococcus aureus; assay: Antibacterial activity against methicillin-resistant Staphylococcus aureus HK5996/08 after 48 hrs by broth microdilution method; format: functional; conditions: HK5996/08, 48 h
[9] = test system: Staphylococcus epidermidis; assay: Antibacterial activity against Staphylococcus epidermidis HK6966/08 after 24 hrs by broth microdilution method; format: functional; conditions: HK6966/08, 24 h
[10] = test system: Pseudomonas aeruginosa; assay: Antibacterial activity against Pseudomonas aeruginosa ATCC 9027 after 24 hrs by broth microdilution method; format: functional; conditions: ATCC 9027, 24 h
[11] = test system: Escherichia coli; assay: Antibacterial activity against Escherichia coli ATCC 8739 after 24 hrs by broth microdilution method; format: functional; conditions: ATCC 8739, 24 h
[12] = test system: Mycobacterium kansasii; assay: Antimycobacterial activity against Mycobacterium kansasii isolate 6509/96 after 14 days by micromethod; format: functional; conditions: isolate 6509/96, 336 h
[13] = test system: Candida tropicalis; assay: Antifungal activity against Candida tropicalis 156 after 24 hrs by broth microdilution method; format: functional; conditions: Candida tropicalis, 156, 24 h
[14] = test system: Mycobacterium tuberculosis; assay: Antimycobacterial activity against Mycobacterium tuberculosis H37Rv CNCTC My 331/88 after 21 days by micromethod; format: functional; conditions: H37Rv CNCTC My 331/88, 504 h
[15] = test system: CHO-K1; assay: Cytotoxicity against CHOK1 cells after 24 hrs by MTT assay; format: cell-based; conditions: Cricetulus griseus, CHO-K1, 24 h
[16] = test system: Escherichia coli; assay: Antibacterial activity against Escherichia coli ATCC 8739 after 48 hrs by broth microdilution method; format: functional; conditions: ATCC 8739, 48 h
[17] = test system: Nakaseomyces glabratus; assay: Antifungal activity against Candida glabrata 20/I after 48 hrs by broth microdilution method; format: functional
[18] = test system: Trichophyton mentagrophytes; assay: Antifungal activity against Trichophyton mentagrophytes 445 after 120 hrs by broth microdilution method; format: functional; conditions: Trichophyton mentagrophytes, 445, 120 h
[19] = test system: Enterococcus sp.; assay: Antibacterial activity against Enterococcus sp. HK14365/08 after 24 hrs by broth microdilution method; format: functional; conditions: HK14365/08, 24 h
[20] = test system: Mycobacterium kansasii; assay: Antimycobacterial activity against Mycobacterium kansasii CNCTC My 235/80 after 14 days by micromethod; format: functional; conditions: CNCTC My 235/80, 336 h
[21] = test system: Mycobacterium avium; assay: Antimycobacterial activity against Mycobacterium avium CNCTC My 330/80 after 21 days by micromethod; format: functional; conditions: CNCTC My 330/80, 504 h
[22] = test system: Lichtheimia corymbifera; assay: Antifungal activity against Absidia corymbifera 272 after 48 hrs by broth microdilution method; format: functional; conditions: Lichtheimia corymbifera, 272, 48 h
[23] = test system: Candida tropicalis; assay: Antifungal activity against Candida tropicalis 156 after 48 hrs by broth microdilution method; format: functional; conditions: Candida tropicalis, 156, 48 h
[24] = test system: Trichophyton mentagrophytes; assay: Antifungal activity against Trichophyton mentagrophytes 445 after 72 hrs by broth microdilution method; format: functional; conditions: Trichophyton mentagrophytes, 445, 72 h
[25] = test system: Trichosporon asahii; assay: Antifungal activity against Trichosporon asahii 1188 after 48 hrs by broth microdilution method; format: functional; conditions: Trichosporon asahii, 1188, 48 h
[26] = test system: Aspergillus fumigatus; assay: Antifungal activity against Aspergillus fumigatus 231 after 48 hrs by broth microdilution method; format: functional; conditions: Aspergillus fumigatus, 231, 48 h
[27] = test system: Mycobacterium kansasii; assay: Antimycobacterial activity against Mycobacterium kansasii isolate 6509/96 after 21 days by micromethod; format: functional; conditions: isolate 6509/96, 504 h
[28] = test system: Mycobacterium kansasii; assay: Antimycobacterial activity against Mycobacterium kansasii isolate 6509/96 after 7 days by micromethod; format: functional; conditions: isolate 6509/96, 168 h
[29] = test system: Klebsiella pneumoniae; assay: Antibacterial activity against Klebsiella pneumoniae HK11750/08 after 48 hrs by broth microdilution method; format: functional; conditions: HK11750/08, 48 h
[30] = test system: Mycobacterium avium; assay: Antimycobacterial activity against Mycobacterium avium CNCTC My 330/80 after 14 days by micromethod; format: functional; conditions: CNCTC My 330/80, 336 h
[31] = test system: Candida albicans; assay: Antifungal activity against Candida albicans ATCC 44859 after 48 hrs by broth microdilution method; format: functional; conditions: ATCC 44859, 48 h
[32] = test system: Staphylococcus aureus; assay: Antibacterial activity against methicillin-resistant Staphylococcus aureus HK5996/08 after 24 hrs by broth microdilution method; format: functional; conditions: HK5996/08, 24 h
[33] = test system: Klebsiella pneumoniae; assay: Antibacterial activity against extended spectrum beta-lactamase producing Klebsiella pneumoniae HK14368/08 after 48 hrs by broth microdilution method; format: functional; conditions: HK14368/08, 48 h
[34] = test system: Aspergillus fumigatus; assay: Antifungal activity against Aspergillus fumigatus 231 after 24 hrs by broth microdilution method; format: functional; conditions: Aspergillus fumigatus, 231, 24 h
[35] = test system: Nakaseomyces glabratus; assay: Antifungal activity against Candida glabrata 20/I after 24 hrs by broth microdilution method; format: functional
[36] = test system: Klebsiella pneumoniae; assay: Antibacterial activity against extended spectrum beta-lactamase producing Klebsiella pneumoniae HK14368/08 after 24 hrs by broth microdilution method; format: functional; conditions: HK14368/08, 24 h
[37] = test system: Mycobacterium kansasii; assay: Antimycobacterial activity against Mycobacterium kansasii CNCTC My 235/80 after 21 days by micromethod; format: functional; conditions: CNCTC My 235/80, 504 h
[38] = test system: Pichia kudriavzevii; assay: Antifungal activity against Candida krusei E28 after 48 hrs by broth microdilution method; format: functional; conditions: E28, 48 h
[39] = test system: Pseudomonas aeruginosa; assay: Antibacterial activity against Pseudomonas aeruginosa ATCC 9027 after 48 hrs by broth microdilution method; format: functional; conditions: ATCC 9027, 48 h
[40] = test system: Pichia kudriavzevii; assay: Antifungal activity against Candida krusei E28 after 24 hrs by broth microdilution method; format: functional; conditions: E28, 24 h
[41] = test system: Staphylococcus aureus; assay: Antibacterial activity against Staphylococcus aureus ATCC 6538 after 48 hrs by broth microdilution method; format: functional; conditions: ATCC 6538, 48 h
[42] = test system: Staphylococcus epidermidis; assay: Antibacterial activity against Staphylococcus epidermidis HK6966/08 after 48 hrs by broth microdilution method; format: functional; conditions: HK6966/08, 48 h
[43] = test system: Candida albicans; assay: Antifungal activity against Candida albicans ATCC 44859 after 24 hrs by broth microdilution method; format: functional; conditions: ATCC 44859, 24 h

O=[N+]([O-])c1cc(-c2nnn(Cc3ccc(Cl)cc3)n2)cc([N+](=O)[O-])c1
0.5 µM: MIC99 [28]
> 500 µM: MIC [4] | MIC [6] | MIC [7] | MIC [8] | MIC [10] | MIC [11] | MIC [16] | MIC [17] | MIC [18] | MIC [19] | MIC [22] | MIC [24] | MIC [26] | MIC [29] | MIC [31] | MIC [32] | MIC [33] | MIC [34] | MIC [35] | MIC [36] | MIC [38] | MIC [39] | MIC [40] | MIC [43]
31.2 µM: MIC [2] | MIC [41]
15.6 µM: MIC [9] | MIC [42]
0.25 µM: MIC99 [1] | MIC99 [5] | MIC99 [14]
250 µM: MIC [13] | MIC [23]
1 µM: MIC99 [12] | MIC99 [20]
8 µM: MIC99 [21] | MIC99 [30]
170 µM: IC50 [15]
2 µM: MIC99 [27] | MIC99 [37]
500 µM: MIC [3] | MIC [25]

O=[N+]([O-])c1cc(-c2nnn(CSc3nnnn3-c3ccc(Cl)cc3)n2)cc([N+](=O)[O-])c1
0.5 µM: MIC99 [5] | MIC99 [12] | MIC99 [27]
1 µM: MIC99 [20]
4 µM: MIC99 [21]
125 µM: MIC [9] | MIC [19]
0.25 µM: MIC99 [28]
2 µM: MIC99 [30] | MIC99 [37]
0.03 µM: MIC99 [1] | MIC99 [14]
> 125 µM: MIC [2] | MIC [3] | MIC [4] | MIC [6] | MIC [7] | MIC [8] | MIC [10] | MIC [11] | MIC [13] | MIC [16] | MIC [17] | MIC [18] | MIC [22] | MIC [23] | MIC [24] | MIC [25] | MIC [26] | MIC [29] | MIC [31] | MIC [32] | MIC [33] | MIC [34] | MIC [35] | MIC [36] | MIC [38] | MIC [39] | MIC [40] | MIC [41] | MIC [42] | MIC [43]
14 µM: IC50 [15]
